# Like-named read-outs stand apart in the source and are kept apart here.
# Key:
# Gardnerella vaginalis = assay: MIC, agar dilution; type: cell-based
# Description: (§1) Micrococcus pyogenes (ATCC 11631), Bacillus subtilis (ATCC 11774), Lactobacillus iners (ATCC 55195), Escherichia coli (ATCC 11775), Proteus mirabilis (ATCC 14153), Klebsiella pneumoniae (ATCC 10031), Shigella sonnei (ATCC 11060), Neisseria gonorrhoeae (ATCC 19424), Salmonella typhimurium (ATCC 14028) Salmonella paratyphi B (ATCC 10719), Helicobacter pylori (ATCC 43504) and several strains of Atopobium vaginae and Gardnerella vaginalis.
# (§2) Strains were prepared from freeze-dried pellets. An isolation of the suspensions (to test the strains purity) and a strains massive growth were made by streaking microbial suspensions on agar media. The bacterial colonies on agar plates were collected with 3-5 mL of specific liquid medium+15% glycerol and then the aliquots were frozen at −80° C.
# (§3) Compounds Minimal Inhibitory Concentration (MIC) was determined through broth micro-dilution susceptibility testing with a method developed following the National Committee for Clinical Laboratory Standards (CLSI) M07-A8 and M11-A7 references. Assays were carried out in specific media (Table 3). The tests were performed either following the broth microdilution assay or the agar dilution assay. Compounds stock solutions were made at 12.8 mg/mL in DMSO 100%. A series of twofold dilutions were then prepared using the strain specific broth. Final concentrations were from 0.125 μg/mL to 64 μg/mL at 1% DMSO. MIC is defined as the lowest concentration of antibacterial agent which prevent any visible growth.
# Atopobium vaginae = assay: MIC, agar dilution; type: cell-based; conditions: Fannyhessea vaginae
# Description: as §1, §2, §3
# [1] = system: Gram positive and negative organisms; assay: Antimicrobial activity (MIC), overall comparison; type: cell-based; conditions: Tables 3 and 4, overall
# Text: as §1, §3
# [2] = system: Staphylococcus aureus (MRSA); assay: MIC, broth microdilution; type: cell-based
# Description: as §2, §3
# [3] = system: Lactobacillus iners ATCC 55195; assay: MIC, broth microdilution; type: cell-based; conditions: ATCC55195; broth microdilution; Lactobacillus iners ATCC 55195; read-out: MIC
# Description: as §1, §2, §3
# [4] = system: Escherichia coli ATCC 11775; assay: MIC, broth microdilution; type: cell-based; conditions: ATCC11775; broth microdilution; Escherichia coli ATCC 11775; read-out: MIC
# Description: as §1, §2, §3
# [5] = system: Proteus mirabilis ATCC 14153; assay: MIC, broth microdilution; type: cell-based; conditions: ATCC14153; broth microdilution; Proteus mirabilis ATCC 14153; read-out: MIC
# Description: as §1, §2, §3
# [6] = system: Salmonella typhimurium ATCC 14028; assay: MIC, broth microdilution; type: cell-based; conditions: Salmonella enterica; broth microdilution; Salmonella typhimurium ATCC 14028; read-out: MIC
# Description: as §1, §2, §3
# [7] = system: Micrococcus pyogenes ATCC 11631; assay: MIC, broth microdilution; type: cell-based; conditions: Staphylococcus aureus, ATCC11631; broth microdilution; Micrococcus pyogenes ATCC 11631; read-out: MIC
# Description: as §1, §2, §3
# [8] = system: Klebsiella pneumonia ATCC 10031; assay: MIC, broth microdilution; type: cell-based; conditions: Klebsiella pneumoniae, ATCC10031; broth microdilution; Klebsiella pneumonia ATCC 10031; read-out: MIC
# Description: as §1, §2, §3
# Bacillus subtilis = assay: MIC, broth microdilution; type: cell-based; conditions: broth microdilution, read-out: MIC
# Description: as §1, §2, §3
# [9] = system: Neisseria gonorrhoeae ATCC 19424; assay: MIC, broth microdilution; type: cell-based; conditions: ATCC19424; broth microdilution; Neisseria gonorrhoeae ATCC 19424; read-out: MIC
# Description: as §1, §2, §3
# [10] = system: Helicobacter pylori ATCC 43504; assay: MIC, broth microdilution; type: cell-based; conditions: ATCC43504
# Description: as §1, §2, §3
# [11] = system: Salmonella paratyphi B ATCC 10719; assay: MIC, broth microdilution; type: cell-based; conditions: Salmonella enterica
# Description: as §1, §2, §3
# [12] = system: Shigella sonnei ATCC 11060; assay: MIC, broth microdilution; type: cell-based; conditions: ATCC11060
# Description: as §1, §2, §3
# in vivo [13] = conditions: male, rat, iv, 2 mg/kg
# in vivo [14] = conditions: male, rat, po, 15 mg/kg
# [15] = rat, in vivo
# Description: The pharmacokinetic profile of S- and R-nifuratel was assessed after intravenous administration (2 mg/kg) and oral gavage (15 mg/kg) in male rats.
# [16] = ATCC14018, agar dilution, Gardnerella vaginalis ATCC 14018, read-out: MIC
# [17] = agar dilution, Gardnerella vaginalis C2, read-out: MIC
# [18] = agar dilution, Gardnerella vaginalis D2, read-out: MIC
# [19] = agar dilution, Gardnerella vaginalis E2, read-out: MIC
# [20] = agar dilution, Gardnerella vaginalis G2, read-out: MIC
# [21] = agar dilution, Gardnerella vaginalis H2, read-out: MIC
# [22] = agar dilution, Gardnerella vaginalis J2, read-out: MIC
# [23] = agar dilution, Gardnerella vaginalis K2, read-out: MIC
# [24] = CCUG38953, agar dilution, Atopobium vaginae CCUG 38953, read-out: MIC
# [25] = CCUG42099, agar dilution, Atopobium vaginae CCUG 42099, read-out: MIC
# [26] = CCUG43049, agar dilution, Atopobium vaginae CCUG 43049, read-out: MIC
# [27] = CCUG44156, agar dilution, Atopobium vaginae CCUG 44156, read-out: MIC
# [28] = CCUG48515, agar dilution, Atopobium vaginae CCUG 48515, read-out: MIC
# [29] = CCUG55226, agar dilution, Atopobium vaginae CCUG 55226, read-out: MIC
# [30] = CCUG55227, agar dilution, Atopobium vaginae CCUG 55227, read-out: MIC
smiles,measurement,setting,value
"CSC[C@H]1CN(/N=C/c2ccc([N+](=O)[O-])o2)C(=O)O1 [R-nifuratel, (R)-Nifuratel]",MIC,Gardnerella vaginalis; [16],1 µg/mL
same,MIC,Gardnerella vaginalis; [17],4 µg/mL
same,MIC,Gardnerella vaginalis; [18],4 µg/mL
same,MIC,Gardnerella vaginalis; [19],1 µg/mL
same,MIC,Gardnerella vaginalis; [20],2 µg/mL
same,MIC,Gardnerella vaginalis; [21],1 µg/mL
same,MIC,Gardnerella vaginalis; [22],2 µg/mL
same,MIC,Gardnerella vaginalis; [23],4 µg/mL
same,MIC,Atopobium vaginae; [24],0.25 µg/mL
same,MIC,Atopobium vaginae; CCUG39382,0.125 µg/mL
same,MIC,Atopobium vaginae; [25],0.25 µg/mL
same,MIC,Atopobium vaginae; [26],0.25 µg/mL
same,MIC,"Atopobium vaginae; CCUG44061, agar dilution, Atopobium vaginae CCUG 44061, read-out: MIC",0.25 µg/mL
same,MIC,Atopobium vaginae; [27],0.25 µg/mL
same,MIC,Atopobium vaginae; [28],0.5 µg/mL
same,MIC,Atopobium vaginae; [29],1 µg/mL
same,MIC,Atopobium vaginae; [30],0.25 µg/mL
same,antimicrobial profile compared to nifuratel racemate or (S)-nifuratel,[1],better antimicrobial profile
same,MIC,[2],2 µg/mL
same,MIC,[3],16 µg/mL
same,MIC,[4],1 µg/mL
same,MIC,[5],8 µg/mL
same,MIC,[6],2 µg/mL
same,MIC,[7],2 µg/mL
same,MIC,[8],2 µg/mL
same,MIC,Bacillus subtilis,0.25 µg/mL
same,MIC,[9],0.25 µg/mL
same,MIC,[10]; Helicobacter pylori,0.125 µg/mL
same,MIC,[11],1 µg/mL
same,MIC,[12],1 µg/mL
same,AUC(0-inf),in vivo [13],750 ng·h/mL
same,AUC(0-t),in vivo [13],740 ng·h/mL
same,Clast,in vivo [13],43 ng/mL
same,Cmax,in vivo [13],4190 ng/mL
same,MRT,in vivo [13],7 min
same,Tlast,in vivo [13],75 min
same,Tmax,in vivo [13],2 min
same,VSR,in vivo [13],0.4 L/kg
same,clearance,in vivo [13],49 mL/min/kg
same,half-life,in vivo [13],11 min
same,AUC(0-t),in vivo [14],66.8 ng·h/mL
same,Clast,in vivo [14],3 ng/mL
same,Cmax,in vivo [14],34 ng/mL
same,MRT,in vivo [14],82.4 h
same,Tlast,in vivo [14],480 min
same,Tmax,in vivo [14],5 min
same,half-life,in vivo [14],236 min
same,overall pharmacokinetic profile,[15],best pharmacokinetic profile
"CSC[C@@H]1CN(/N=C/c2ccc([N+](=O)[O-])o2)C(=O)O1 [S-Nifuratel, (S)-Nifuratel]",MIC,Gardnerella vaginalis; [16],2 µg/mL
same,MIC,Gardnerella vaginalis; [17],8 µg/mL
same,MIC,Gardnerella vaginalis; [18],2 µg/mL
same,MIC,Gardnerella vaginalis; [19],2 µg/mL
same,MIC,Gardnerella vaginalis; [20],1 µg/mL
same,MIC,Gardnerella vaginalis; [21],2 µg/mL
same,MIC,Gardnerella vaginalis; [22],4 µg/mL
same,MIC,Gardnerella vaginalis; [23],4 µg/mL
same,MIC,Atopobium vaginae; [24],0.25 µg/mL
same,MIC,"Atopobium vaginae; CCUG39382, agar dilution, Atopobium vaginae CCUG 39382, read-out: MIC",0.25 µg/mL
same,MIC,Atopobium vaginae; [25],0.5 µg/mL
same,MIC,Atopobium vaginae; [26],0.5 µg/mL
same,MIC,Atopobium vaginae; CCUG44061,0.125 µg/mL
same,MIC,Atopobium vaginae; [27],0.25 µg/mL
same,MIC,Atopobium vaginae; [28],1 µg/mL
same,MIC,Atopobium vaginae; [29],1 µg/mL
same,MIC,Atopobium vaginae; [30],0.5 µg/mL
same,MIC,[2],4 µg/mL
same,MIC,[3],32 µg/mL
same,MIC,[4],2 µg/mL
same,MIC,[5],8 µg/mL
same,MIC,[6],8 µg/mL
same,MIC,[7],1 µg/mL
same,MIC,[8],4 µg/mL
same,MIC,Bacillus subtilis,1 µg/mL
same,MIC,[9],0.5 µg/mL
same,MIC,"[10]; broth microdilution, Helicobacter pylori ATCC 43504, read-out: MIC",0.25 µg/mL
same,MIC,[11],4 µg/mL
same,MIC,[12],4 µg/mL
same,AUC(0-inf),in vivo [13],167 ng·h/mL
same,AUC(0-t),in vivo [13],166 ng·h/mL
same,Clast,in vivo [13],5 ng/mL
same,Cmax,in vivo [13],1150 ng/mL
same,MRT,in vivo [13],4 min
same,Tlast,in vivo [13],53 min
same,Tmax,in vivo [13],2 min
same,VSR,in vivo [13],0.9 L/kg
same,clearance,in vivo [13],203 mL/min/kg
same,half-life,in vivo [13],8 min
same,AUC(0-t),in vivo [14],32.6 ng·h/mL
same,Clast,in vivo [14],3 ng/mL
same,Cmax,in vivo [14],6 ng/mL
same,Tlast,in vivo [14],480 min
same,Tmax,in vivo [14],5 min

# — patent US9284306B2, “(R)-Nifuratel, its use for the treatment of infections and synthesis of (R) and (S)-Nifuratel” (POLICHEM SA, priority 2012, dated 2016)
